Measurements reported in patent publication EP3046573B1, “AMYLIN ANALOGUES” (Zealand Pharma A/S, priority 2013, dated 2015).
Numbered stars: 1 amine (or outer) side, 2 acyl side, 3 side chain; on linkers, the order of the positions; unused ones are H or OH. Bridge positions count the residues as written; N and C are the ends. Square brackets hold non-standard residues; d marks the D form. Peptide text beside a SMILES is read from it. * marks the point of attachment. C20 diacid = O=C(O)CCCCCCCCCCCCCCCCCCC(=O)*; γGlu = O=C(O)[C@H](CCC(=O)[*:2])N[*:1]; NMeI = CC[C@H](C)[C@H](NC)C(=O)O; Sar = CNCC(=O)O

Experiments:
[1] = Assessment of physical stability: fibril formation detected with Thioflavin T (ThT), lag-time; format: physicochemical; settings: 1 mg/ml peptide, 40 µM ThT, FND = Fibrillation not detected; for Fibrillation lag time (hours) pH 4.0 (Ac): 50 mM acetate buffer pH 4.0, 96 hours at 40°C; for Fibrillation lag time (hours) pH 7.0 (His): 50 mM histidine buffer pH 7.0, 96 hours at 40°C; for Fibrillation lag time (hours) pH 7.0 (Ph): 50 mM phosphate buffer pH 7.0, 96 hours at 40°C
Procedure, shortened: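 Test peptide at 1 mg/ml with 40 µM ThT in 50 mM phosphate (pH 7.0), 50 mM histidine (pH 7.0) or 50 mM acetate (pH 4.0), in triplicate, 40° C. for 96 h. Fluorescence read every 10 min after 300 s agitation. Lag-time (h) taken as intersection of linear fits to initial stable and growth phases.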

[2] = Pharmacokinetic (PK) profiling in rats; format: in vivo; settings: male, Sprague Dawley, rat, plasma, single sc bolus, 100 nmol/kg (18, NN96), 20 nmol/kg (72, 76), 30 nmol/kg (73, 82, 118, 162, 166, 172); for CL/F: apparent clearance; for half-life: terminal elimination half-life, read-out: t½ (converted)
Description: Sprague Dawley male rats were given a single subcutaneous (sc) bolus of each peptide to be tested at doses as specified below..
Study A: Following the administration of a 100 nmol/kg dose of a test peptide of the invention (Compound 18) and a comparison pramlintide analogue NN96 (see Example 5, above), respectively, blood samples were drawn from the tail vein at 0.5, 3, 8, 15, 36, 60 and 81 hours post-dosing. 4 rats were used (2 rats per compound). The rats were euthanized immediately after the last blood sampling by overdose of O2/CO2.
Study B: 20 nmol/kg doses of Compound 72 and Compound 76, respectively, of the invention were administered. Blood samples were drawn by sublingual bleeding prior to dosing and at 2, 6, 12, 24, 48, 72 and 96 hours after dosing. 4 rats were used (2 rats per compound). The rats were euthanized immediately after the last blood sampling by overdose of O2/CO2.
Study C: 30 nmol/kg doses of Compound 73, Compound 82 and Compound 118, respectively, of the invention were administered. Blood samples were drawn from the tail vein prior to dosing and at 24, 48, 72 and 96 hours after dosing. Blood samples were taken from two rats at each time point, and only 2 blood samples were drawn from each rat, i.e. 8 rats were used for each compound. The rats were euthanized immediately after the last blood sampling by concussion and cervical dislocation.
Study D: 30 nmol/kg doses of Compound 162, Compound 166 and Compound 172 were administered. Blood samples were drawn from the tail vein prior to dosing and at 24, 48, 72, 96 and 168 hours after dosing. Blood samples were taken from two rats at each time point, and only 2 blood samples were drawn from each rat, i.e. 10 rats were used for each compound. The rats were euthanized immediately after the last blood sampling by concussion and cervical dislocation.
The dosing vehicle used for each test peptide was a mannitol-containing histidine buffer (pH 7.0). Plasma samples were analyzed after precipitation with ethanol by liquid chromatography mass spectrometry (LC-MS/MS). Mean plasma concentrations were used for calculation of the pharmacokinetic parameters using the non-compartmental approach in Phoenix WinNonlin 6.3.
Plasma terminal elimination half-life (t½) was determined as In(2)/λz, where λz is the magnitude of the slope of the log linear regression of the log concentration versus time profile during the terminal phase. Apparent clearance (CL/F) was determined as dose/AUCinf (sc), where AUCinf is the area under the plasma concentration vs. time curve extrapolated to infinity (AUCinf = AUClast + Clast/λz, where Clast is the last observed plasma concentration).

Sprague Dawley (SD) rats = assay: Acute food intake and body weight in normal Sprague Dawley rats; format: in vivo; settings: vehicle-corrected, dose 30 nmol/kg sc, once; for Body weight loss (%) after 96 hours: mean ± SEM, n = 8
Procedure, shortened: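 Normal male-unspecified SD rats, n = 8 per group, given a single s.c. peptide dose of 30 nmol/kg just before dark phase, with vehicle and positive control groups. Food intake recorded at 0, 4, 7, 10, 24, 48, 72 and 96 h; body weight daily; means ± SEM.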

[3] = Assessment of chemical stability: normalized purity by RP-HPLC after incubation at 40 °C; format: physicochemical; settings: normalized purity (T=0 set to 100), 0.2 mg/ml
Procedure, shortened: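 Peptides at 0.2 mg/ml in water adjusted to pH 4, 7.5 or 9, held at 40 °C for 7 days. Purity by RP-HPLC (C8/ammonium formate or C18/TFA gradients), UV 220 nm, as main-peak area-%; normalized to T=0 set as 100 for each pH.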

Row | Structure (SMILES) | Fibrillation lag time (hours) pH 4.0 (Ac) [1] | Fibrillation lag time (hours) pH 7.0 (His) [1] | Fibrillation lag time (hours) pH 7.0 (Ph) [1] | CL/F [2] [mL/h/kg] | half-life [2] [h] | Food intake inhibition (%) after 48 hours (Sprague Dawley (SD) rats) [%] | Body weight loss (%) after 96 hours (Sprague Dawley (SD) rats) [%] | Chem. stability; 7 days, 40°C pH 4 ([3]; pH 4, 7 days) [area-%] | Chem. stability; 7 days, 40°C pH 7.5 ([3]; pH 7.5, 7 days) [area-%] | Chem. stability; 7 days, 40°C pH 9 ([3]; pH 9, 7 days) [area-%]
1 | CC[C@H](C)[C@@H](C(=O)N[C@@H](CC(C)C)C(=O)N[C@@H](CO)C(=O)N[C@@H](CO)C(=O)N[C@H](C(=O)N[C@@H](CC(N)=O)C(=O)N[C@H](C(=O)NCC(=O)N[C@@H](CO)C(=O)N[C@@H](CC(N)=O)C(=O)N[C@H](C(=O)N1CCC[C@H]1C(N)=O)[C@@H](C)O)C(C)C)[C@@H](C)O)N(C)C(=O)[C@H](C)NC(=O)CN(C)C(=O)[C@H](Cc1ccccc1)NC(=O)[C@H](CC(N)=O)NC(=O)[C@H](CC(N)=O)NC(=O)[C@H](CO)NC(=O)[C@H](CO)NC(=O)[C@H](CCCNC(=N)N)NC(=O)[C@H](Cc1c[nH]cn1)NC(=O)[C@H](CC(C)C)NC(=O)[C@H](Cc1ccccc1)NC(=O)[C@H](CCC(=O)O)NC(=O)[C@H](C)NC(=O)[C@H](CC(C)C)NC(=O)[C@H](CCCNC(=N)N)NC(=O)[C@H](CCC(N)=O)NC(=O)[C@@H](NC(=O)[C@H](C)NC(=O)[C@@H]1CSSC[C@H](NC(=O)[C@H](CCCNC(=N)N)NC(=O)CC[C@H](NC(=O)CCCCCCCCCCCCCCCCCCC(=O)O)C(=O)O)C(=O)N[C@@H](CC(N)=O)C(=O)N[C@@H]([C@@H](C)O)C(=O)N[C@@H](C)C(=O)N[C@@H]([C@@H](C)O)C(=O)N1)[C@@H](C)O [Compound 18, [19CD]-isoGlu-RC()NTATC()ATQRLAEFLHRSSNNF-Gly(Me)-A-Ile(Me)-LSSTNVGSNTP-NH2] ({C20 diacid-γGlu}-RCNTATCATQRLAEFLHRSSNNF[Sar]A[NMeI]LSSTNVGSNTP-NH2; disulfide 2-7) | 20 hours | 33 hours | 33 hours | 3.48 | 37.6 | 98 | 13 ± 0.8 |  |  | 
2 | CC[C@H](C)[C@@H](C(=O)N[C@@H](CC(C)C)C(=O)N[C@@H](CO)C(=O)N[C@@H](CO)C(=O)N[C@H](C(=O)N[C@@H](CC(=O)O)C(=O)N[C@H](C(=O)NCC(=O)N[C@@H](CO)C(=O)N[C@@H](CC(=O)O)C(=O)N[C@H](C(=O)N1CCC[C@H]1C(N)=O)[C@@H](C)O)C(C)C)[C@@H](C)O)N(C)C(=O)[C@H](C)NC(=O)CN(C)C(=O)[C@H](Cc1ccccc1)NC(=O)[C@H](CO)NC(=O)[C@H](CO)NC(=O)[C@H](CO)NC(=O)[C@H](CO)NC(=O)[C@H](CCCNC(=N)N)NC(=O)[C@H](Cc1c[nH]cn1)NC(=O)[C@H](CC(C)C)NC(=O)[C@H](Cc1ccccc1)NC(=O)[C@H](CCC(=O)O)NC(=O)[C@H](C)NC(=O)[C@H](CC(C)C)NC(=O)[C@H](CCCNC(=N)N)NC(=O)[C@H](CCC(N)=O)NC(=O)[C@@H](NC(=O)[C@H](C)NC(=O)[C@@H]1CSSC[C@H](NC(=O)[C@H](CCCNC(=N)N)NC(=O)CC[C@H](NC(=O)CCCCCCCCCCCCCCCCCCC(=O)O)C(=O)O)C(=O)N[C@@H](CC(N)=O)C(=O)N[C@@H]([C@@H](C)O)C(=O)N[C@@H](C)C(=O)N[C@@H]([C@@H](C)O)C(=O)N1)[C@@H](C)O [Compound 73, [19CD]-isoGlu-RC()NTATC()ATQRLAEFLHRSSSSF-Gly(Me)-A-Ile(Me)-LSSTDVGSDTP-NH2] ({C20 diacid-γGlu}-RCNTATCATQRLAEFLHRSSSSF[Sar]A[NMeI]LSSTDVGSDTP-NH2; disulfide 2-7) | FND | FND | FND | 3.06 | 55.4 | 93 | 11 ± 1.8 |  |  | 
3 | CC[C@H](C)[C@@H](C(=O)N[C@@H](CC(C)C)C(=O)N[C@@H](CO)C(=O)N[C@@H](CO)C(=O)N[C@H](C(=O)N[C@@H](CC(N)=O)C(=O)N[C@H](C(=O)NCC(=O)N[C@@H](CO)C(=O)N[C@@H](CC(N)=O)C(=O)N[C@H](C(=O)N1CCC[C@H]1C(N)=O)[C@@H](C)O)C(C)C)[C@@H](C)O)N(C)C(=O)[C@H](C)NC(=O)CN(C)C(=O)[C@H](Cc1ccccc1)NC(=O)[C@H](CC(N)=O)NC(=O)[C@H](CC(N)=O)NC(=O)[C@H](CO)NC(=O)[C@H](CO)NC(=O)[C@H](CCCNC(=N)N)NC(=O)[C@H](Cc1c[nH]cn1)NC(=O)[C@H](CC(C)C)NC(=O)[C@H](Cc1ccccc1)NC(=O)[C@H](CCC(=O)O)NC(=O)[C@H](C)NC(=O)[C@H](CC(C)C)NC(=O)[C@H](CCCNC(=N)N)NC(=O)[C@H](CCC(N)=O)NC(=O)[C@@H](NC(=O)[C@H](C)NC(=O)[C@@H]1CSSC[C@H](NC(=O)[C@H](Cc2c[nH]c3ccccc23)NC(=O)[C@H](CCCNC(=N)N)NC(=O)CC[C@H](NC(=O)CCCCCCCCCCCCCCCCCCC(=O)O)C(=O)O)C(=O)N[C@@H](CC(N)=O)C(=O)N[C@@H]([C@@H](C)O)C(=O)N[C@@H](C)C(=O)N[C@@H]([C@@H](C)O)C(=O)N1)[C@@H](C)O [Compound 174, [19CD]-isoGlu-RWC()NTATC()ATQRLAEFLHRSSNNF-Gly(Me)-A-Ile(Me)-LSSTNVGSNTP-NH2] ({C20 diacid-γGlu}-RWCNTATCATQRLAEFLHRSSNNF[Sar]A[NMeI]LSSTNVGSNTP-NH2; disulfide 3-8) | FND | FND | FND |  |  | 99 | 8 ± 1.4 | 92 | 31 | 39
4 | CC[C@H](C)[C@H](NC(=O)[C@@H]1CCCN1C(=O)CNC(=O)[C@H](Cc1ccccc1)NC(=O)[C@H](CC(N)=O)NC(=O)[C@H](CC(N)=O)NC(=O)[C@H](CO)NC(=O)[C@H](CO)NC(=O)[C@H](Cc1c[nH]cn1)NC(=O)[C@H](Cc1c[nH]cn1)NC(=O)[C@H](CC(C)C)NC(=O)[C@H](Cc1ccccc1)NC(=O)[C@H](CCC(=O)O)NC(=O)[C@H](C)NC(=O)[C@H](CC(C)C)NC(=O)[C@H](CCCNC(=N)N)NC(=O)[C@H](CCC(N)=O)NC(=O)[C@@H](NC(=O)[C@H](C)NC(=O)[C@@H]1CSSC[C@H](NC(=O)[C@H](CCCNC(=N)N)NC(=O)CC[C@H](NC(=O)CCCCCCCCCCCCCCCCCCC(=O)O)C(=O)O)C(=O)N[C@@H](CC(N)=O)C(=O)N[C@@H]([C@@H](C)O)C(=O)N[C@@H](C)C(=O)N[C@@H]([C@@H](C)O)C(=O)N1)[C@@H](C)O)C(=O)N[C@@H](CC(C)C)C(=O)N1CCC[C@H]1C(=O)N1CCC[C@H]1C(=O)N[C@H](C(=O)N[C@@H](CC(N)=O)C(=O)N[C@H](C(=O)NCC(=O)N[C@@H](CO)C(=O)N[C@@H](CC(N)=O)C(=O)N[C@H](C(=O)N1CCC[C@H]1C(N)=O)[C@@H](C)O)C(C)C)[C@@H](C)O [NN96, N-α-[(S)-4-carboxy-4-(19-carboxynonadecanoylamino)butyryl]-[Arg1,Glu14,His17,Pro37]-pramlintide, reference compound] ({C20 diacid-γGlu}-RCNTATCATQRLAEFLHHSSNNFGPILPPTNVGSNTP-NH2; disulfide 2-7) |  |  |  | 4.73 | 34.7 |  |  |  |  | 
